How the values were obtained:
W&Wlis cells [1] = experiment: Structural modifications of the mitochondrion (pDsRed2-mito, confocal microscopy); format: cell-based, canine; settings: linamarin 500 μg/ml from 48 hours; glucose oxidase 5 mEU/ml; combination after 24 hours
Method: For the purpose of studying the mitochondrial dynamics occurring as a result of the oxidative stress caused by the activity of the claimed system, W&Wlis cells were stably transfected with the plasmid pdsRed2-mito (Clontech) containing the gene of the one red fluorescent protein carried by a transport signal peptide to the mitochondrion. This allowed viewing the mitochondria of cells treated with linamarin and glucose oxidase by fluorescence microscopy. […] This effect starts to be observed 48 hours after treatment with linamarin (FIG. 1B) and becomes more pronounced after 72 hours, a slight swelling of the fragments (FIG. 1C) being observed.
To study the structural modifications of the mitochondrion during therapy, the W&W and W&Wlis cells were transfected with the plasmid pDsRed2-mito (Clontech, BD Bioscience) containing the gene of a red fluorescent protein which is expressed exclusively in mitochondria. The transfection was performed similarly to the previous section and clones were selected by resistance to neomycin (0.75 and 1.5 mg/ml respectively). The cells from stable expression clones of the protein were seeded in multiwell plates on cover slips (2.5×10^4) and were treated with linamarin (50, 200 or 500 μg/ml) and glucose oxidase (5 mEU/ml). After the suitable incubation time for each experiment (24, 48 or 72 hours) elapsed, the cells were fixed with 4% paraformaldehyde. […]

W&Wlis cells [2] = experiment: DNA content analysis by flow cytometry, labeling with propidium iodide; format: cell-based, canine; design: unit not given here; settings: Without GO
W&Wlis cells [3] = experiment: Measurement of intracellular ATP; format: cell-based, canine; settings: linamarin (500 μg/ml) and/or glucose oxidase (5 mEU/ml), over time, versus untreated cells
Method: The levels of intracellular energy in the form of ATP decrease when a blockage of the mitochondrial electron transport chain occurs since it is the essential source of obtaining energy of the cells. […] This effect is due to the fact that the maximum H2O2 production by glucose oxidase occurs at short times because the cells have the ability of detoxifying the peroxide and due to the fact that glucose oxidase is inactivated over time by the serum proteins.
10^5 W&Wlis cells were seeded in test tubes with a screw-on cap and flat side (Nunc). After 24 hours, the medium was changed, adding linamarin (500 μg/ml) and glucose oxidase (5 mEU/ml) where appropriate. After 4, 8, 12, 24, 48 or 72 hours, the cells were centrifuged and processed following the instructions of the ATP Bioluminescence Assay Kit CLS II, of Roche Applied Science. The luminescence was analyzed with a Monolight 2010 luminometer (Analytical Luminescence Laboratory, San Diego) and expressed in relative light units (RLU).

GB-LP-1 cells = experiment: Survival by MTT of GB-LP-1 explant cells infected with adenolis; format: cell-based, human; settings: 500 μg/ml linamarin; even at MOI: 1
Method: The behavior of the lis/lin therapy in one of the explants (GB-LP-1) was additionally analyzed. These cells were infected with adenolis (MOI: 0, 1, 12, 100 and 500) and the survival and production of cyanide after the addition of 500 μg/ml linamarin (FIGS. 6G and 6H, respectively) were studied.
10^5 cells (W&W and patient explants) were seeded in test tubes with a flat side and screw-on cap (Nunc), or 5×10^4 cells were seeded on cover slips in 24-well plates and were simultaneously infected with adenolis (Crucell) at different multiplicities of infection (MOI: 0; 0.2; 1; 10; 100 or 500). For the cells seeded in test tubes, the medium was changed after 24 hours adding 0.5 mg/ml of linamarin where appropriate. A cell viability assay was conducted with MTT at 96 hours after the addition of linamarin. 48 hours after infection the cells seeded in the cover slips were processed to perform immunofluorescence to detect linamarase.

For `CC(C)(C#N)O[C@@H]1O[C@H](CO)[C@@H](O)[C@H](O)[C@H]1O` [lin, 2-hydroxy-isobutyronitrile-β-D-glucopyranoside], the mitochondrial pattern (W&Wlis cells [1]) was “dotted pattern”, the “DNA content by flow cytometry, labeling with propidium iodide” value (shortened to “DNA content by flow cytometry, labeling”) (W&Wlis cells [2]; 50 μg lin, 48 hours) was 1.95 and the “DNA content by flow cytometry, labeling” value (W&Wlis cells [2]; 50 μg lin, 72 hours) was 2.77. For the same compound, the “DNA content by flow cytometry, labeling” value (W&Wlis cells [2]; 200 μg lin, 48 hours) was 1.89, the “DNA content by flow cytometry, labeling” value (W&Wlis cells [2]; 200 μg lin, 72 hours) was 3.14 and the “DNA content by flow cytometry, labeling” value (W&Wlis cells [2]; 500 μg lin, 48 hours) was 3.21. For the same compound, the “DNA content by flow cytometry, labeling” value (W&Wlis cells [2]; 500 μg lin, 72 hours) was 4.91, the “intracellular ATP levels” value (W&Wlis cells [3]) was “progressive and rapid depletion of ATP which becomes almost complete after 48 hours” and the “sensitivity of adenolis-infected cells to linamarin (survival)” value (GB-LP-1 cells) was “very sensitive to treatment with linamarin”.

— patent US20100028366A1, “SYNERGISTIC EFFECT BETWEEN A […] AND ANOTHER OXIDATIVE INDUCING SYSTEM FOR TREATING TUMORS” (priority 2005, published 2010)
